Where two headings read alike, the source gives them in different places.
Tests used:
Assay type in all cases: in vivo, Brassica napus
[1] = system: AHASL1A-S653N, S653N (Ho); conditions: 18 Days After Treatment, line AHASL1A-S653N; for Mean Percent Crop Phytotoxicity (% Crop Injury): field, 2-4 leaf stage
Source text: (§1) Hand-crossed hybrids were produced in the greenhouse between two IMI-tolerant spring Brassica napus parental lines: “BnCL131A1” (homozygous for the A genome IMI-tolerant mutation AHASL1A-A122(At)T-S653(At)N) and “PM1PM2” (homozygous for the A genome AHAS-inhibitor tolerant mutation AHASL1A-W574(At)L (PM2) plus the C genome AHAS-inhibitor tolerant mutation AHASL1C-S653(At)N(PM1)). The resulting heterozygous hand-crossed hybrid line, “PM1PM2/BnCL131A 1” (heterozygous for the stacked mutations: AHASL1A-A122(At)T-S653(At)N, AHASL1A-W574(At)L (PM2), AHASL1C-S653(At)N(PM1)) was field tested together with lines each containing only one AHAS-inhibitor tolerant mutation (homozygous or heterozygous) and several spring Brassica napus checks.
(§2) The three repetition trial was conducted in Simcoe, N. Dak., and used a randomized split block design. The trial was designed to measure the percent phytotoxicity (% crop injury) of the different entries under 5 different imidazolinone herbicide treatment rates. Plants were sprayed at the 2-4 leaf stage at a volume of 100 liters/ha. The imidazolinone herbicide rates used were as follows (Imazamox=BEYOND™ 120 g/I LC (BAS 72001H); NIS=INDUCE™ 90 (90% non-ionic surfactant; Helena Chemical Co., Collierville, Tenn.):
(§3) Crop Injury Ratings were determined in the field by assessing each plot in the trial for the level of phytotoxicity (percent crop injury) on a scale from 0-100% at 18 days after treatment. Mean values for each entry across the three replications along with their statistical significance (ANOVA) are presented in Table 6 (Ho=homozygous; He=heterozygous). Each value presented in Table 6 is the mean of three replications.
(§4) The percent phytotoxicity (% crop injury) ratings were transposed into Herbicide Tolerance ratings by subtracting the percent crop injury rating (Table 6) for each line from 100% to obtain the percent herbicide tolerance (Table 7) (Ho=homozygous; He=heterozygous).

[2] = system: PM2 (AHASL1A-PM2), W574L (Ho); conditions: 18 Days After Treatment, line PM2 (AHASL1A-PM2); for Mean Percent Crop Phytotoxicity (% Crop Injury): field, 2-4 leaf stage
Source text: as §1, §2, §3, §4

[3] = system: BnCL131A1 (He), A122T-S653N (He); conditions: 18 Days After Treatment, line BnCL131A1 (He); for Mean Percent Crop Phytotoxicity (% Crop Injury): field, 2-4 leaf stage
Source text: as §1, §2, §3, §4

[4] = system: BnCL131A1 (Ho), A122T-S653N (Ho); conditions: 18 Days After Treatment, line BnCL131A1 (Ho); for Mean Percent Crop Phytotoxicity (% Crop Injury): field, 2-4 leaf stage
Source text: as §1, §2, §3, §4

[5] = system: PM1PM2/BnCL131A1, S653N (He), W574L (He)/A122T-S653N (He); conditions: for Mean Percent Crop Phytotoxicity (% Crop Injury): field, 2-4 leaf stage; for Expected Additive % Herbicide Tolerance: sum of BnCL131A1 (He) + PM2 (AHASL1A-PM2) + PM1 (AHASL1C-PM1)
Source text: as §1, §2, §3, §4

[6] = mean over 0, 35, 70, 140, 210 g ai/ha (N 15)

**Q.** For COCc1cnc(C2=NC(C)(C(C)C)C(=O)N2)c(C(=O)O)c1 (stereo not shown) [imazamox], which “Mean Percent Crop Phytotoxicity (% Crop Injury)” value ([1]; 70 g ai/ha + 0.25% (v/v) NIS) is on record?
**A.** The value was 78.33%.

**Q.** And the “Mean Percent Herbicide Tolerance (100% minus percent crop injury)” value ([1]; 70 g ai/ha)?
**A.** The value was 21.7%.

**Q.** And the “Mean Percent Crop Phytotoxicity (% Crop Injury)” value ([1]; 210 g ai/ha + 0.25% (v/v) NIS)?
**A.** Its value is 90%.

**Q.** And the “Mean Percent Herbicide Tolerance (100% minus percent crop injury)” value ([1]; 210 g ai/ha)?
**A.** Its value is 10.0%.

**Q.** And the “Mean Percent Crop Phytotoxicity (% Crop Injury), Mean over rates” value [1, 6]?
**A.** The value was 64.33%.

**Q.** And the “Mean Percent Crop Phytotoxicity (% Crop Injury)” value ([2]; 35 g ai/ha + 0.25% (v/v) NIS)?
**A.** Its value is 36.67%.

**Q.** What about the “Mean Percent Herbicide Tolerance (100% minus percent crop injury)” value ([2]; 35 g ai/ha) of the same molecule?
**A.** The value was 63.3%.

**Q.** What about the “Mean Percent Crop Phytotoxicity (% Crop Injury)” value ([2]; 70 g ai/ha + 0.25% (v/v) NIS) of the same molecule?
**A.** The value was 46.67%.

**Q.** What about the “Mean Percent Herbicide Tolerance (100% minus percent crop injury)” value ([2]; 70 g ai/ha) of the same molecule?
**A.** The value was 53.3%.

**Q.** What about the “Mean Percent Crop Phytotoxicity (% Crop Injury)” value ([2]; 140 g ai/ha + 0.25% (v/v) NIS) of the same molecule?
**A.** Its value is 83.33%.

**Q.** What about the “Mean Percent Herbicide Tolerance (100% minus percent crop injury)” value ([2]; 140 g ai/ha) of the same molecule?
**A.** The value was 16.7%.

**Q.** And the “Mean Percent Crop Phytotoxicity (% Crop Injury)” value ([2]; 210 g ai/ha + 0.25% (v/v) NIS)?
**A.** The value was 80%.

**Q.** And the “Mean Percent Herbicide Tolerance (100% minus percent crop injury)” value ([2]; 210 g ai/ha)?
**A.** The value was 20.0%.

**Q.** And the “Mean Percent Crop Phytotoxicity (% Crop Injury), Mean over rates” value [2, 6]?
**A.** Its value is 49.33%.

**Q.** And the “Mean Percent Crop Phytotoxicity (% Crop Injury)” value ([3]; 35 g ai/ha + 0.25% (v/v) NIS)?
**A.** The value was 33.33%.

**Q.** What about the “Mean Percent Herbicide Tolerance (100% minus percent crop injury)” value ([3]; 35 g ai/ha) of the same molecule?
**A.** Its value is 66.7%.

**Q.** What about the “Mean Percent Crop Phytotoxicity (% Crop Injury)” value ([3]; 70 g ai/ha + 0.25% (v/v) NIS) of the same molecule?
**A.** Its value is 60%.

**Q.** What about the “Mean Percent Herbicide Tolerance (100% minus percent crop injury)” value ([3]; 70 g ai/ha) of the same molecule?
**A.** Its value is 40.0%.

**Q.** What about the “Mean Percent Crop Phytotoxicity (% Crop Injury)” value ([3]; 140 g ai/ha + 0.25% (v/v) NIS) of the same molecule?
**A.** Its value is 80%.

**Q.** What about the “Mean Percent Herbicide Tolerance (100% minus percent crop injury)” value ([3]; 140 g ai/ha) of the same molecule?
**A.** The value was 20.0%.

**Q.** What about the “Mean Percent Crop Phytotoxicity (% Crop Injury)” value ([3]; 210 g ai/ha + 0.25% (v/v) NIS) of the same molecule?
**A.** Its value is 73.33%.

**Q.** And the “Mean Percent Herbicide Tolerance (100% minus percent crop injury)” value ([3]; 210 g ai/ha)?
**A.** The value was 26.7%.

**Q.** What about the “Mean Percent Crop Phytotoxicity (% Crop Injury), Mean over rates” value [3, 6] of the same molecule?
**A.** Its value is 49.33%.

**Q.** What about the “Mean Percent Crop Phytotoxicity (% Crop Injury)” value ([4]; 35 g ai/ha + 0.25% (v/v) NIS) of the same molecule?
**A.** Its value is 16.67%.

**Q.** And the “Mean Percent Herbicide Tolerance (100% minus percent crop injury)” value ([4]; 35 g ai/ha)?
**A.** The value was 83.3%.

**Q.** What about the “Mean Percent Crop Phytotoxicity (% Crop Injury)” value ([4]; 70 g ai/ha + 0.25% (v/v) NIS) of the same molecule?
**A.** The value was 31.67%.

**Q.** What about the “Mean Percent Herbicide Tolerance (100% minus percent crop injury)” value ([4]; 70 g ai/ha) of the same molecule?
**A.** The value was 68.3%.

**Q.** And the “Mean Percent Crop Phytotoxicity (% Crop Injury)” value ([4]; 140 g ai/ha + 0.25% (v/v) NIS)?
**A.** Its value is 43.33%.

**Q.** And the “Mean Percent Herbicide Tolerance (100% minus percent crop injury)” value ([4]; 140 g ai/ha)?
**A.** Its value is 56.7%.

**Q.** What about the “Mean Percent Crop Phytotoxicity (% Crop Injury)” value ([4]; 210 g ai/ha + 0.25% (v/v) NIS) of the same molecule?
**A.** Its value is 55%.

**Q.** And the “Mean Percent Herbicide Tolerance (100% minus percent crop injury)” value ([4]; 210 g ai/ha)?
**A.** The value was 45.0%.

**Q.** What about the “Mean Percent Crop Phytotoxicity (% Crop Injury), Mean over rates” value [4, 6] of the same molecule?
**A.** Its value is 29.33%.

**Q.** What about the “Mean Percent Crop Phytotoxicity (% Crop Injury)” value ([5]; 35 g ai/ha + 0.25% (v/v) NIS, 18 Days After Treatment, line PM1PM2/BnCL131A1) of the same molecule?
**A.** The value was 8.33%.

**Q.** And the “Mean Percent Herbicide Tolerance (100% minus percent crop injury)” value ([5]; 35 g ai/ha, 18 Days After Treatment, line PM1PM2/BnCL131A1)?
**A.** The value was 91.7%.

**Q.** What about the “Mean Percent Crop Phytotoxicity (% Crop Injury)” value ([5]; 70 g ai/ha + 0.25% (v/v) NIS, 18 Days After Treatment, line PM1PM2/BnCL131A1) of the same molecule?
**A.** Its value is 15%.

**Q.** And the “Mean Percent Herbicide Tolerance (100% minus percent crop injury)” value ([5]; 70 g ai/ha, 18 Days After Treatment, line PM1PM2/BnCL131A1)?
**A.** The value was 85.0%.

**Q.** And the “Mean Percent Crop Phytotoxicity (% Crop Injury)” value ([5]; 140 g ai/ha + 0.25% (v/v) NIS, 18 Days After Treatment, line PM1PM2/BnCL131A1)?
**A.** Its value is 21.67%.

**Q.** What about the “Mean Percent Herbicide Tolerance (100% minus percent crop injury)” value ([5]; 140 g ai/ha, 18 Days After Treatment, line PM1PM2/BnCL131A1) of the same molecule?
**A.** Its value is 78.3%.

**Q.** And the “Expected Additive % Herbicide Tolerance” value ([5]; 140 g ai/ha)?
**A.** Its value is 45%.

**Q.** And the “Expected Additive % Herbicide Tolerance” value ([5]; 140 g ai/ha, listed as Beyond)?
**A.** Its value is 45.0%.

**Q.** And the “Mean Percent Crop Phytotoxicity (% Crop Injury)” value ([5]; 210 g ai/ha + 0.25% (v/v) NIS, 18 Days After Treatment, line PM1PM2/BnCL131A1)?
**A.** Its value is 15%.

**Q.** And the “Mean Percent Herbicide Tolerance (100% minus percent crop injury)” value ([5]; 210 g ai/ha, 18 Days After Treatment, line PM1PM2/BnCL131A1)?
**A.** Its value is 85%.

**Q.** And the “Mean Percent Herbicide Tolerance (100% minus percent crop injury)” value ([5]; 210 g ai/ha, 18 Days After Treatment, line PM1PM2/BnCL131A1, listed as Beyond)?
**A.** The value was 85.0%.

**Q.** What about the “Expected Additive % Herbicide Tolerance” value ([5]; 210 g ai/ha) of the same molecule?
**A.** The value was 55%.

**Q.** And the “Expected Additive % Herbicide Tolerance” value ([5]; 210 g ai/ha, listed as Beyond)?
**A.** The value was 55.0%.

**Q.** And the “Mean Percent Crop Phytotoxicity (% Crop Injury), Mean over rates” value ([5]; mean over 0, 35, 70, 140, 210 g ai/ha (N 15), 18 Days After Treatment, line PM1PM2/BnCL131A1)?
**A.** Its value is 12%.

— patent US20120060243A1, “Herbicide-Resistant AHAS-Mutants and Methods of Use” (priority 2008, published 2012)
